From patent US20150259331A1, “PROTOZOAN PARASITE GROWTH INHIBITORS” (Northeastern University, priority 2014, published 2015)
Where two headings read alike, the source gives them in different places.

Columns and labels:
T. cruzi = T. cruzi growth inhibition; type: cell-based, Trypanosoma cruzi; conditions: Trypanosoma cruzi
P. fal = P. fal assay of Table 13 (strain not given); type: cell-based, P. falciparum
L. major promastigote = L. major promastigote assay; type: cell-based
[1] = test system: T. brucei brucei Lister 427; assay: Trypanosome replication assay; type: cell-based, Trypanosoma brucei brucei; conditions: 48 h, concentration giving 50% inhibition of growth of T brucei brucei Lister 427 cells, 48 h, values ±7%, read-out: Tbb EC50
L. major amastigote = L. major amastigote assay; type: cell-based; conditions: Leishmania major

`CN1CCN(S(=O)(=O)c2ccc(-c3ccc4ccnc(Nc5ccc(OCc6cccc(F)c6)c(Cl)c5)c4c3)cc2)CC1` [NEU-950, N-(3-Chloro-4-((3-fluorobenzyl)oxy)phenyl)-7-(4-((4-methylpiperazin-1-yl)sulfonyl)phenyl)isoquinolin-1-amine] gave an EC50 (T. cruzi) greater than 50 µM, an EC50 (P. fal; Plasmodium falciparum) of 0.04 µM and an EC50 (L. major promastigote; Leishmania major) greater than 15 µM. The EC50 ([1]; Trypanosoma brucei) was 1.8 µM and the EC50 (L. major amastigote) was greater than 15 µM.
Work on `CN1CCN(S(=O)(=O)c2ccc(-c3ccc4nncc(Nc5ccc(OCc6cccc(F)c6)c(Cl)c5)c4c3)cc2)CC1` [NEU-1003, N-(3-Chloro-4-((3-fluorobenzyl)oxy)phenyl)-6-(4-((4-methylpiperazin-1-yl)sulfonyl)phenyl)cinnolin-4-amine] yielded an EC50 (T. cruzi) greater than 50 µM, an EC50 (P. fal; Plasmodium falciparum) of 0.13 µM and an EC50 (L. major promastigote; Leishmania major) greater than 15 µM. The EC50 ([1]; Trypanosoma brucei) was 0.98 µM and the EC50 (L. major amastigote) was 1.9 µM.
In the case of `CN1CCN(S(=O)(=O)c2ccc(-c3ccc4c(Nc5ccc(OCc6cccc(F)c6)c(Cl)c5)nccc4c3)cc2)CC1` [NEU-951, N-(3-Chloro-4-((3-fluorobenzyl)oxy)phenyl)-6-(4-((4-methylpiperazin-1-yl)sulfonyl)phenyl)isoquinolin-1-amine], the EC50 (T. cruzi) is reported as greater than 50 µM, the EC50 (P. fal; Plasmodium falciparum) is reported as 0.11 µM and the EC50 (L. major promastigote; Leishmania major) is reported as 2.7 µM. For the same molecule, the EC50 ([1]; Trypanosoma brucei) was 0.1 µM and the EC50 (L. major amastigote) was greater than 15 µM.
`Fc1cccc(COc2ccc(Nc3nncc4cc(-c5cccc(N6CCOCC6)c5)ccc34)cc2Cl)c1` [NEU-1037, N-(3-Chloro-4-((3-fluorobenzyl)oxy)phenyl)-6-(3-morpholinophenyl)phthalazin-1-amine] was tested, and the EC50 (T. cruzi) was greater than 50 µM, the EC50 (P. fal; Plasmodium falciparum) was 0.24 µM and the EC50 (L. major promastigote; Leishmania major) was greater than 15 µM. For the same molecule, the EC50 ([1]; Trypanosoma brucei) was 1.4 µM and the EC50 (L. major amastigote) was 2.2 µM.
`CN1CCN(S(=O)(=O)c2ccc(-c3ccc4c(Nc5ccc(OCc6cccc(F)c6)c(Cl)c5)cnnc4c3)cc2)CC1` [NEU-1016, N-(3-Chloro-4-((3-fluorobenzyl)oxy)phenyl)-7-(4-((4-methylpiperazin-1-yl)sulfonyl)phenyl)cinnolin-4-amine] was tested, and the EC50 (T. cruzi) was 3.1 µM, the EC50 (P. fal; Plasmodium falciparum) was 0.014 µM and the EC50 (L. major promastigote; Leishmania major) was 5.7 µM. For the same molecule, the EC50 ([1]; Trypanosoma brucei) was 1 µM and the EC50 (L. major amastigote) was 2 µM.
`O=S(=O)(c1ccc(-c2ccc3c(Nc4ccc(OCc5ccccc5)c(Cl)c4)ccnc3c2)cc1)N1CCOCC1` [NEU-944, N-(4-(Benzyloxy)-3-chlorophenyl)-7-(4-(morpholinosulfonyl)phenyl)quinolin-4-amine] was tested, and the EC50 (T. cruzi) was 3.5 µM, the EC50 (P. fal; Plasmodium falciparum) was 0.016 µM and the EC50 ([1]; Trypanosoma brucei) was 0.24 µM.
Molecule `Fc1cccc(COc2ccc(Nc3nncc4ccc(-c5cccc(N6CCOCC6)c5)cc34)cc2Cl)c1` [NEU-1035, N-(3-Chloro-4-((3-fluorobenzyl)oxy)phenyl)-7-(3-morpholinophenyl)phthalazin-1-amine] has an EC50 (T. cruzi) greater than 50 µM, an EC50 (P. fal; Plasmodium falciparum) of 0.11 µM and an EC50 (L. major promastigote; Leishmania major) greater than 15 µM. The EC50 ([1]; Trypanosoma brucei) was 0.29 µM and the EC50 (L. major amastigote) was 1.7 µM.
In the case of `CN1CCN(S(=O)(=O)c2ccc(-c3ccc4ncc(C#N)c(Nc5ccc(OCc6cccc(F)c6)c(Cl)c5)c4c3)cc2)CC1` [NEU-993], the EC50 (P. fal) is reported as 0.082 µM, the EC50 (L. major promastigote) is reported as greater than 15 µM and the EC50 [1] is reported as 1.1 µM.
Molecule `CN1CCCN(S(=O)(=O)c2ccc(-c3ccc4ccnc(Nc5ccc(OCc6cccc(F)c6)c(Cl)c5)c4c3)cc2)CC1` [NEU-962, N-(3-Chloro-4-((3-fluorobenzyl)oxy)phenyl)-7-(4-((4-methyl-1,4-diazepan-1-yl)sulfonyl)phenyl)isoquinolin-1-amine] has an EC50 (T. cruzi) of 4.7 µM, an EC50 (P. fal; Plasmodium falciparum) of 0.086 µM and an EC50 (L. major promastigote; Leishmania major) of 1.3 µM. It also gave an EC50 ([1]; Trypanosoma brucei) of 0.73 µM and an EC50 (L. major amastigote) of 2.2 µM.
`CN1CCCN(S(=O)(=O)c2ccc(-c3ccc4c(Nc5ccc(OCc6cccc(F)c6)c(Cl)c5)nccc4c3)cc2)CC1` [NEU-963, N-(3-Chloro-4-((3-fluorobenzyl)oxy)phenyl)-6-(4-((4-methyl-1,4-diazepan-1-yl)sulfonyl)phenyl)isoquinolin-1-amine] gave an EC50 (T. cruzi) of 33 µM, an EC50 (P. fal; Plasmodium falciparum) of 0.41 µM and an EC50 (L. major promastigote; Leishmania major) of 0.44 µM. It also gave an EC50 ([1]; Trypanosoma brucei) of 0.39 µM and an EC50 (L. major amastigote) of 4.4 µM.
